We go through ten compounds from patent publication US5912330A, “Crystalline maltosyl glucoside, and its production and use” (Kabushiki Kaisha Hayashibara Seibutsu Kagaku Kenkyujo, priority 1994, dated 1999).

In brackets after ≈: the same amount, converted by molar mass.

The nature of one series: Solubility in water. Format: physicochemical. To be noted: 25° C. water. Here is the method:
(8) Solubility (as anhydride)
Up to about 163 g each hydrous and anhydrous crystals were respectively soluble in 100 ml of 25° C. water.

Series [1] can be described thus: Hygroscopicity: water content and appearance at 90.1% relative humidity. It is filed as physicochemical. The settings on record: for Hygroscopicity and appearance: in words. Here is the method: About 1 g powder of hydrous crystalline maltosyl glucoside, anhydrous crystalline maltosyl glucoside or amorphous crystalline maltosyl glucoside was placed in a polyethylene vessel and allowed to stand in high humidity conditions of 90.1% relative humidity, and the changes of moisture content and appearance of these powders were observed and measured at a prescribed interval. Hydrous and anhydrous crystals, which were prepared by the methods of Experiment B-1, and amorphous crystal, which was prepared by dissolving hydrous crystal substance in deionized water and dried in vacuo to obtain a test sample.

A further series deals with mice. Kind of series: Acute toxicity in mice upon oral administration. Format: in vivo. The settings on record: for mortality: maximum administrable dose. Here is the method:
(§1) Hydrous and anhydrous crystalline maltosyl glucosides prepared by the method in Experiment B-1 were tested for acute toxicity in mice upon oral administration.

The nature of series [2]: Reducing power (DE) by Somogyi-Nelson method. It is filed as physicochemical. To be noted: dextrose equivalent. An excerpt: For purifying these newly formed saccharides, the reaction products were decolored, deionized, concentrated and subjected to column fractionation using a strongly-acidic cation exchanger in alkali-metal form ("XT-1016", Na^+ form, 4% cross-linking degree, a product of Tokyo Organic Chemical Industries, Ltd., Tokyo, Japan). More particularly, the cation exchanger was packed in 3 jacketed stainless steel columns, inner diameter of 2.0 cm, length of 1 m each, cascaded in series, which were then loaded with either reaction product in an amount of 5 v/v % to the volume of the cation exchanger and then applied with 55° C. water at an SV (space velocity) 0.13 for fractionation, and fractions containing 97% or more newly formed saccharides were collected. The obtained fractions were separately lyophilized into high-purity saccharide preparations. The yields against particular material substrates were about 9% for PI, about 65% for PII, about 82% for PIII, about 80% for PIV and about 77% for PV, and the final purities were 97.5% for PI, 98.6% for PII, 99.5% for PIII, 98.4% for PIV and 98.4% for PV.
These high-purity saccharide preparations were tested for their reducing powers with the Somogyi-Nelson method and their reducing powers were represented in terms of DE (dextrose equivalent).

The nature of series [3]: Acute toxicity in mice upon oral administration. The settings on record: mouse, in vivo. It is filed as in vivo. Here is the method:
as §1

Series [4] is described as follows: Moisture adsorption / hygroscopicity of the products of the Examples. It is filed as physicochemical.

For orientation: LD50 means the dose expected to kill half of the subjects tested. A lower LD50 goes with greater toxicity. As for `OC[C@H]1O[C@H](O[C@H]2O[C@H](CO)[C@@H](O[C@H]3O[C@H](CO)[C@@H](O)[C@H](O)[C@H]3O)[C@H](O)[C@H]2O)[C@H](O)[C@@H](O)[C@@H]1O` [Anhydrous crystal, O-α-D-glucopyranosyl-(→4)-α-D-glucopyranosyl α-D-glucopyranoside], the “Solubility (as anhydride)” value in “Solubility in water” is given as “about 163 g/100 ml”. The Water content in series [1] (0 hour) is 0.3%; in series [1] (2 hours), 10.3%; in series [1] (8 hours), 10.4%; in series [1] (24 hours), 10.5%. The Hygroscopicity and appearance entry in series [1] was “hygroscopic, however, had no change of appearance and retained free-flowing ability”. Further, the LD50 in the series on mice was at least 50000 mg/kg. Further, in the series with mice, the mortality result is listed as “no mouse died”.

With `OC[C@H]1O[C@H](O[C@H]2O[C@H](CO)[C@@H](O[C@H]3O[C@H](CO)[C@@H](O)[C@H](O)[C@H]3O)[C@H](O)[C@H]2O)[C@H](O)[C@@H](O)[C@@H]1O` [Amorphous crystal, O-α-D-glucopyranosyl-(→4)-α-D-glucopyranosyl α-D-glucopyranoside], the Water content in series [1] (0 hour) turned out to be 0.5%; in series [1] (2 hours), 6.3%; in series [1] (8 hours), 17.4%; in series [1] (24 hours), 20.0%. Also, the Hygroscopicity and appearance entry in series [1] is “very hygroscopic, readily solidified, and free flowing”.

As to `OC[C@H]1O[C@H](O[C@H]2O[C@H](CO)[C@@H](O[C@H]3O[C@H](CO)[C@@H](O[C@H]4O[C@H](CO)[C@@H](O)[C@H](O)[C@H]4O)[C@H](O)[C@H]3O)[C@H](O)[C@H]2O)[C@H](O)[C@@H](O)[C@@H]1O` [PII, α-maltotriosyl glucoside], in series [2], the DE turned out to be 0.35.

What is called solubility is the concentration that dissolves in the medium under given conditions. In the case of `OC[C@H]1O[C@H](O[C@H]2O[C@H](CO)[C@@H](O[C@H]3O[C@H](CO)[C@@H](O)[C@H](O)[C@H]3O)[C@H](O)[C@H]2O)[C@H](O)[C@@H](O)[C@@H]1O` [Hydrous crystal, O-α-D-glucopyranosyl-(→4)-α-D-glucopyranosyl α-D-glucopyranoside], in “Solubility in water” (read-out: Solubility (as anhydride)), the solubility is about 1630 mg/mL (≈ 3230 mM). The Water content is 9.9% in series [1] (0 hour), 10.4% in series [1] (2 hours), 10.5% in series [1] (8 hours) and 10.5% in series [1] (24 hours). In addition, the Hygroscopicity and appearance entry in series [1] is “less hygroscopic, free flowing, and readily handleable”. This compound registered an LD50 in series [3] of at least 50000 mg/kg. The mortality entry in the series on mice is on record as “no mouse died”.

In the case of `OC[C@H]1O[C@H](O[C@H]2O[C@H](CO)[C@@H](O[C@H]3O[C@H](CO)[C@@H](O)[C@H](O)[C@H]3O)[C@H](O)[C@H]2O)[C@H](O)[C@@H](O)[C@@H]1O` [Example A-5], in series [4] (anhydrous crystal converted into hydrous crystal), the “water content after standing in a room” value is on record as “about 10%”.

In the case of `OC[C@H]1O[C@H](O[C@H]2O[C@H](CO)[C@@H](O[C@H]3O[C@H](CO)[C@@H](O)[C@H](O)[C@H]3O)[C@H](O)[C@H]2O)[C@H](O)[C@@H](O)[C@@H]1O` [Example A-1], the hygroscopicity entry in series [4] (in words, product of the Example) is listed as “substantially no hygroscopicity”.

In the case of `OC[C@H]1O[C@H](O[C@H]2O[C@H](CO)[C@@H](O[C@H]3O[C@H](CO)[C@@H](O[C@H]4O[C@H](CO)[C@@H](O[C@H]5O[C@H](CO)[C@@H](O[C@H]6O[C@H](CO)[C@@H](O)[C@H](O)[C@H]6O)[C@H](O)[C@H]5O)[C@H](O)[C@H]4O)[C@H](O)[C@H]3O)[C@H](O)[C@H]2O)[C@H](O)[C@@H](O)[C@@H]1O` [PIV, α-maltopentaosyl glucoside], in series [2], the DE is 0.27.

For `OC[C@H]1O[C@H](O[C@H]2O[C@H](CO)[C@@H](O[C@H]3O[C@H](CO)[C@@H](O[C@H]4O[C@H](CO)[C@@H](O[C@H]5O[C@H](CO)[C@@H](O)[C@H](O)[C@H]5O)[C@H](O)[C@H]4O)[C@H](O)[C@H]3O)[C@H](O)[C@H]2O)[C@H](O)[C@@H](O)[C@@H]1O` [PIII, α-maltotetraosyl glucoside], the DE in series [2] came out at 0.10.

On to `OC[C@H]1O[C@H](O[C@H]2O[C@H](CO)[C@@H](O[C@H]3O[C@H](CO)[C@@H](O)[C@H](O)[C@H]3O)[C@H](O)[C@H]2O)[C@H](O)[C@@H](O)[C@@H]1O` [PI, α-maltosyl glucoside], for which the DE in series [2] is 0.83.

`OC[C@H]1O[C@H](O[C@H]2O[C@H](CO)[C@@H](O[C@H]3O[C@H](CO)[C@@H](O[C@H]4O[C@H](CO)[C@@H](O[C@H]5O[C@H](CO)[C@@H](O[C@H]6O[C@H](CO)[C@@H](O[C@H]7O[C@H](CO)[C@@H](O)[C@H](O)[C@H]7O)[C@H](O)[C@H]6O)[C@H](O)[C@H]5O)[C@H](O)[C@H]4O)[C@H](O)[C@H]3O)[C@H](O)[C@H]2O)[C@H](O)[C@@H](O)[C@@H]1O` [PV, α-maltohexaosyl glucoside]: in series [2], the DE came to 0.23.
